Laboratory results: PubChem BioAssay (NCI)
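Method: 48-hour compound exposure of cells in 96-well plates, five concentrations, linear interpolation of endpoints. GI50 = concentration required for 50% inhibition of growth. TGI is the concentration that stops growth completely.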

Legend:
Experiment in all cases: inhibition of tumour cell growth, NCI panel, 48 h
[1] = test system: CAKI-1 renal
[2] = test system: HL-60(TB) leukemia
[3] = test system: HOP-92 NSCLC
[4] = test system: MCF7 breast
[5] = test system: NCI-H460 lung
[6] = test system: OVCAR-3 ovarian
[7] = test system: OVCAR-4 ovarian
[8] = test system: SF-539 CNS
[9] = test system: SK-MEL-28 melanoma
[10] = test system: SK-OV-3 ovarian

Structure (SMILES)	GI50 [1] [µM]	TGI [1] [µM]	GI50 [2] [µM]	TGI [2] [µM]	GI50 [3] [µM]	TGI [3] [µM]	GI50 [4] [µM]	TGI [4] [µM]	GI50 [5] [µM]	TGI [5] [µM]	GI50 [6] [µM]	TGI [6] [µM]	GI50 [7] [µM]	TGI [7] [µM]	GI50 [8] [µM]	TGI [8] [µM]	GI50 [9] [µM]	TGI [9] [µM]	GI50 [10] [µM]	TGI [10] [µM]
CN(C)c1ccc(/C=C(\C#N)c2cc3ccccc3[nH]2)cc1	1.6	> 100	0.455	> 100	1.42	5.53	0.416	> 100	0.476	> 100	0.409	4.06	3.75	> 100	1.97	35.1	2.63	> 100	2.28	> 100
Cc1ccc(N(C=O)c2c([N+](=O)[O-])cc([N+](=O)[O-])c3c2=[N+]([O-])CN=3)cc1		> 100		61.3		60.1		57.7		> 100		73.6		> 100		> 100		> 100		> 100
COc1ccc(OC)c(Nc2nc3nonc3nc2Nc2cccc(Br)c2)c1	0.811	15.2	0.702	5.9	0.266	3.55	1.63	> 100	0.504	> 100	0.6	21.6	0.867	> 100	1.25	29.5	0.779	> 100	0.486	4.1
O=C1C=C(NCCO)c2nccc3c2c1nc1ccccc13	23.3	82.2	14.2	> 100	> 100	> 100	20.5	> 100	6.04	40.9	18.6	52.6	41.3	> 100	22.9	73.1	41.4	> 100	80.1	> 100
COc1cc(-c2nn(-c3ccc(NC(=O)Nc4cc(C(F)(F)F)cc(C(F)(F)F)c4)cc3)cc2-c2ccncc2)ccc1Cl	1.97	6.73	3.04	> 100	1.07	4.32	2.84	8.98	1.75	3.88	1.46	3.88	2.78	9.43	1.64	3.71	1.93	3.74	1.55	3.09
CC(C)(C)[Si](C)(C)OCC1OC(n2cnc3c(=O)[nH]cnc32)CC1O (stereo not given)		> 100		> 100		> 100		> 100		> 100		> 100		> 100		> 100		> 100		> 100
CC[C@@H](C)/C=C(C)/C=C/C(=O)c1c(O)c(-c2ccc(OC(=O)[C@@]34CC[C@@](C)(C(=O)O3)C4(C)C)cc2)cn(O)c1=O	1.6	11.9	0.841	2.4	2.84	> 50	1.82	> 50	1.28	7.56	1.04	> 50	1.23	> 50	1.3	6.1	2.51	> 50	7.48	> 50
